Test results: patent US11344549B2 (priority 2017, dated 2022)

Columns and labels:
JAK1 kinase = JAK1 kinase (Homo sapiens (Human), UniProt P23458); details: read-out: JAK1 IC50
JAK2 kinase = JAK2 kinase (Homo sapiens (Human), UniProt O60674); details: read-out: JAK2 IC50
Chain of JAK2 kinase (O60674 826-1132): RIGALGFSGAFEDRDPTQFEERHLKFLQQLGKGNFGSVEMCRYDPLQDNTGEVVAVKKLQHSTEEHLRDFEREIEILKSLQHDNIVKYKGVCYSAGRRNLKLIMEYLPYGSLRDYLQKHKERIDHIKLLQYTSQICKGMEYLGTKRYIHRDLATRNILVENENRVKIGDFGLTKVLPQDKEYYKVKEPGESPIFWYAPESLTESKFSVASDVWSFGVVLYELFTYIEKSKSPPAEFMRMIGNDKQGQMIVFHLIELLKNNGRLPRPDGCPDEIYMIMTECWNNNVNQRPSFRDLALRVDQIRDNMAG

Chain of JAK1 kinase (P23458 850-1154): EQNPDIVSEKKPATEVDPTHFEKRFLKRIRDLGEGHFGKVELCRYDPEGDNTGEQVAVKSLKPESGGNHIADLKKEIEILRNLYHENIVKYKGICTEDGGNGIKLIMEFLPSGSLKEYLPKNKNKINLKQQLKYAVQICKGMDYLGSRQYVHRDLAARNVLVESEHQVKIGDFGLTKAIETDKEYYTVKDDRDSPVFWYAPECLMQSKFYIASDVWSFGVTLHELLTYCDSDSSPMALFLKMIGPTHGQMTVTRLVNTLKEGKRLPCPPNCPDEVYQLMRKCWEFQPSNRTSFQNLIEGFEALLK

Row | Compound | IC50 (JAK1 kinase) [nM] | IC50 (JAK2 kinase) [nM]
1 | Cn1cc(Nc2ncc(C(N)=O)c(NCc3ccccc3)n2)cn1 [Example 1, 4-benzylamino-2-((1-methyl-1H-pyrazol-4-yl)amino)pyrimidin-5-carboxamide] | 84.7 | 9.5
2 | COc1ccccc1CNc1nc(Nc2cnn(C)c2)ncc1C(N)=O [Example 2, 4-((2-methoxybenzyl)amino)-2-((1-methyl-1H-pyrazol-4-yl)amino)pyrimidin-5-carboxamide] | 2.53 | 2.19
3 | COc1cccc(F)c1CNc1nc(Nc2cnn(C)c2)ncc1C(N)=O [Example 3, 4-((2-fluoro-6-methoxybenzyl)amino)-2-((1-methyl-1H-pyrazol-4-yl)amino)pyrimidin-5-carboxamide] | 2.81 | 0.57
4 | Cn1cc(Nc2ncc(C(N)=O)c(NCc3c(Cl)cccc3Cl)n2)cn1 [Example 5, 4-((2,6-dichlorobenzyl)amino)-2-((1-methyl-1H-pyrazol-4-yl)amino)pyrimidin-5-carboxamide] | 23.4 | –
5 | COCCn1cc(Nc2ncc(C(N)=O)c(NCc3c(F)cccc3F)n2)cn1 [Example 6, 4-((2,6-difluorobenzyl)amino)-2-((1-(2-methoxyethyl)-1H-pyrazol-4-yl)amino)pyrimidin-5-carboxamide] | 29.9 | 1.27
6 | COCCn1cc(Nc2ncc(C(N)=O)c(NCc3c(F)cccc3OC)n2)cn1 [Example 7, 4-((2-fluoro-6-methoxybenzyl)amino)-2-((1-(2-methoxyethyl)-1H-pyrazol-4-yl)amino)pyrimidin-5-carboxamide] | 9.18 | 1.01
7 | Cn1cc(Nc2ncc(C(N)=O)c(NCCCCCO)n2)cn1 [Example 8, 4-((5-hydroxypentyl)amino)-2-((1-methyl-1H-pyrazol-4-yl)amino)pyrimidin-5-carboxamide] | 80.3 | –
8 | CC(=O)N1CCC(CNc2nc(Nc3cnn(C)c3)ncc2C(N)=O)CC1 [Example 11, 4-(((1-acetylpiperidin-4-yl)methyl)amino)-2-((1-methyl-1H-pyrazol-4-yl)amino)pyrimidin-5-carboxamide] | – | 33.3
9 | CC(=O)N1CCC(CCNc2nc(Nc3cnn(C)c3)ncc2C(N)=O)CC1 [Example 12, 4-((2-(1-acetylpiperidin-4-yl)ethyl)amino)-2-((1-methyl-1H-pyrazol-4-yl)amino)pyrimidin-5-carboxamide] | 352 | –
10 | CCn1cc(Nc2ncc(C(N)=O)c(NCc3c(F)cccc3F)n2)cn1 [Example 132, 4-[(2,6-difluoro-benzyl)amino]-2-[(1-ethyl-1H-pyrazol-4-yl)amino]pyrimidin-5-carboxamide] | 14.3 | 0.51
11 | CC(C)n1cc(Nc2ncc(C(N)=O)c(NCc3c(F)cccc3F)n2)cn1 [Example 133, 4-[(2,6-difluoro-benzyl)amino]-2-[(1-isopropyl-1H-pyrazol-4-yl)amino]pyrimidin-5-carboxamide] | 22.8 | 0.47
12 | NC(=O)c1cnc(Nc2cnn(C3CC3)c2)nc1NCc1c(F)cccc1F [Example 134, 4-[(2,6-difluoro-benzyl)amino]-2-[(1-cyclopropyl-1H-pyrazol-4-yl)amino]pyrimidin-5-carboxamide] | – | 1.19
13 | NC(=O)c1cnc(Nc2cnn(C3CCC3)c2)nc1NCc1c(F)cccc1F [Example 135, 4-[(2,6-difluoro-benzyl)amino]-2-[(1-cyclobutyl-1H-pyrazol-4-yl)amino]pyrimidin-5-carboxamide] | 30.3 | 0.61
14 | NC(=O)c1cnc(Nc2cnn(C3CCOCC3)c2)nc1NCc1c(F)cccc1F [Example 137, 4-[(2,6-difluoro-benzyl)amino]-2-[[1-(tetra hydro-2H-pyran-4-yl)-1H-pyrazol-4-yl)amino]pyrimidin-5-carboxamide] | 16.4 | 0.27
15 | NC(=O)c1cnc(Nc2cnn(CC3CCCO3)c2)nc1NCc1c(F)cccc1F (centres unmarked) [Example 138, 4-[(2,6-difluoro-benzyl)amino]-2-[[1-((tetrahydro-furan-2-yl)methyl)-1H-pyrazol-4-yl]amino]pyrimidin-5-carboxamide] | 88.9 | 1.24
16 | CC(C)(O)Cn1cc(Nc2ncc(C(N)=O)c(NCc3c(F)cccc3F)n2)cn1 [Example 145, 4-[(2,6-difluoro-benzyl)amino]-2-[[1-(2-hydroxy-2-methylpropyl)-1H-pyrazol-4-yl]amino]pyrimidin-5-carboxamide] | 20.3 | 2.08

Row | Compound | IC50 (JAK1 kinase) [nM] | IC50 (JAK2 kinase) [nM]
17 | CCn1cc(Nc2ncc(C(N)=O)c(NCc3c(F)cccc3OC)n2)cn1 [Example 150, 4-[(2-fluoro-6-methoxybenzyl)amino]-2-[(1-ethyl-1H-pyrazol-4-yl)amino]pyrimidin-5-carboxamide] | 3.22 | –
18 | COc1cccc(F)c1CNc1nc(Nc2cnn(C(C)C)c2)ncc1C(N)=O [Example 151, 4-[(2-fluoro-6-methoxybenzyl)amino]-2-[(1-isopropyl-1H-pyrazol-4-yl)amino]pyrimidin-5-carboxamide] | 2.77 | 0.61
19 | COc1ccccc1CNc1nc(Nc2cnn(CCO)c2)ncc1C(N)=O [Example 172, 4-[(2-methoxybenzyl)amino]-2-[[1-(2-hydroxyethyl)-1H-pyrazol-4-yl]amino]pyrimidin-5-carboxamide] | 15.6 | 0.95
20 | Cc1cccc(C)c1CNc1nc(Nc2cnn(CCO)c2)ncc1C(N)=O [Example 174, 4-[(2,6-dimethyl-benzyl)amino]-2-[[1-(2-hydroxy-ethyl)-1H-pyrazol-4-yl]amino]pyrimidin-5-carboxamide] | 54.7 | 3.06
21 | C=CCCNc1nc(Nc2cnn(C(C)(C)C)c2)ncc1C(N)=O [Example 228, 4-(but-3-en-1-ylamino)-2-((1-(tert-butyl)-1H-pyrazol-4-yl)amino)pyrimidin-5-carboxamide] | – | 13.9
22 | C=C(C)CNc1nc(Nc2cnn(C(C)(C)C)c2)ncc1C(N)=O [Example 229, 2-((1-tert-butyl-1H-pyrazol-4-yl)amino)-4-((2-methylallyl)amino)pyrimidin-5-carboxamide] | – | 2.8
23 | CC(C)=CCNc1nc(Nc2cnn(C(C)(C)C)c2)ncc1C(N)=O [Example 230, 2-((1-(tert-butyl)-1H-pyrazol-4-yl)amino)-4-((3-methylbut-2-en-1-yl)amino)pyrimidin-5-carboxamide] | 28.1 | 1.7
24 | C=C(C)CNc1nc(Nc2cnn(C3CCOCC3)c2)ncc1C(N)=O [Example 232, 4-((2-methylallyl)amino)-2-((1-(tetrahydro-2H-pyran-4-yl)-1H-pyrazol-4-yl)amino)pyrimidin-5-carboxamide] | 34.4 | 2
25 | CC(C)=CCNc1nc(Nc2cnn(C3CCOCC3)c2)ncc1C(N)=O [Example 233, 4-((3-methylbut-2-en-1-yl)amino)-2-((1-(tetrahydro-2H-pyran-4-yl)-1H-pyrazol-4-yl)amino)pyrimidin-5-carboxamide] | 6.5 | 0.9
26 | C=CCCNc1nc(Nc2cnn(C3CCOCC3)c2)ncc1C(N)=O [Example 234, 4-(but-3-en-1-ylamino)-2-((1-(tetrahydro-2H-pyran-4-yl)-1H-pyrazol-4-yl)amino)pyrimidin-5-carboxamide] | 31 | 1.2
27 | CC(C)(C)n1cc(Nc2ncc(C(N)=O)c(NCC3CC=CC3)n2)cn1 [Example 236, 2-((1-(tert-butyl)-1H-pyrazol-4-yl)amino)-4-((cyclopent-3-en-1-ylmethyl)amino)pyrimidin-5-carboxamide] | 7.6 | 2.6
28 | C=CCNc1nc(Nc2cnn(C(C)(C)C)c2)ncc1C(N)=O [Example 238, 4-(allylamino)-2-((1-(tert-butyl)-1H-pyrazol-4-yl)amino)pyrimidin-5-carboxamide] | 11.5 | 3.6
29 | C=C(C)CCNc1nc(Nc2cnn(C(C)(C)C)c2)ncc1C(N)=O [Example 242, 2-((1-tert-butyl-1H-pyrazol-4-yl)amino)-4-((3-methylbut-3-en-1-yl)amino)pyrimidin-5-carboxamide] | 8 | 1.5
30 | C=C(C)CCCNc1nc(Nc2cnn(C(C)(C)C)c2)ncc1C(N)=O [Example 244, 2-((1-tert-butyl-1H-pyrazol-4-yl)amino)-4-((4-methylpent-4-en-1-yl)amino)pyrimidin-5-carboxamide] | 10.8 | 3
31 | CC(C)=CCCCNc1nc(Nc2cnn(C(C)(C)C)c2)ncc1C(N)=O [Example 245, 2-((1-tert-butyl-1H-pyrazol-4-yl)amino)-4-((5-methylhex-4-en-1-yl)amino)pyrimidin-5-carboxamide] | 40.8 | 16.9
32 | CC(C)C/C=C/CNc1nc(Nc2cnn(C(C)(C)C)c2)ncc1C(N)=O [Example 246, (E)-2-((1-tert-butyl-1H-pyrazol-4-yl)amino)-4-((5-methylhex-2-en-1-yl)amino)pyrimidin-5-carboxamide] | 345 | 42.5
